Measured values published in patent publication EP2676962A1, “Derivatives of 1-aminoalkylphosphonate diaryl esters, method of 1-aminoalkylphosphonate diaryl ester derivatives preparation and their application” (priority 2012, dated 2013).
Where two headings read alike, the source gives them in different places.

How the values were obtained:
Assay type in all cases: biochemical
[1] = biological target: T1, human neutrophil elastase (HNE) (Homo sapiens, UniProt P08246); assay: Inhibitory activity toward human neutrophil elastase, fluorogenic substrate, microplate reader
T1 sequence (P08246 30-267): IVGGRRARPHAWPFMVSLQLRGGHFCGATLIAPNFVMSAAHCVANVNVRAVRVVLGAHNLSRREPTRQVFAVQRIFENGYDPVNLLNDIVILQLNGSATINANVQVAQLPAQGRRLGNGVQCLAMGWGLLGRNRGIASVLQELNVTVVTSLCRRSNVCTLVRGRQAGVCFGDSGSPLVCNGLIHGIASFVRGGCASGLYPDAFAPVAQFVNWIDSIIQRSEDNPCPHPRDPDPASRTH
Method: (§1) The biological activity of peptidyl derivatives of phosphonic analogs of valine, alanine, phenylalanine, 4-guanidinephenylglycine, leucine, and 1-aminobutyric acid, containing the N-terminal biotin residue were tested for their ability to inhibit proteolytic activity of selected serine proteases, and the control cysteine proteases. All tests were performed using a microplate reader. As enzyme substrates fluorescent peptides were used. The method to measure the activity of the compounds obtained are described below for each of the enzymes tested: human neutrophil elastase (HNE), porcine pancreatic elastase (PPE), subtilisin (Sub), cathepsin G (CatG), proteinase 3 (PR3), chymotrypsin (ChTry) trypsin (Try), papain (Pap) and cathepsin L (CatL). Measurement of the inhibitory activity was performed at different inhibitor concentrations ranging from 12.5 nM to 2000nm.
Measurement of inhibitory activity of compounds toward human neutrophil elastase (HNE).
The inhibitory activity assay is performed at 37°C in 0,01M HEPES, 0,5M NaCl, 0,03% Triton X-100 buffer, pH 7,5, within 10 min after initial pre-incubation of the enzyme with inhibitor tested at 37°C for 10 min. The enzyme concentration is 0,0025U/ml. Substrate used Me-Suc-Ala-Ala-Pro-Val-AFC at 25µM. Measurement is taken at an excitation wavelength of 400nm and 505nm emission.
(§2) The IC50 value is the concentration of inhibitor required to inhibit half of the enzyme activity after 10 minutes incubation.

cathepsin G (CatG) = biological target: T2, cathepsin G (CatG) (Homo sapiens, UniProt P08311); assay: Inhibitory activity toward cathepsin G, fluorogenic substrate, microplate reader
T2 sequence (P08311 21-244): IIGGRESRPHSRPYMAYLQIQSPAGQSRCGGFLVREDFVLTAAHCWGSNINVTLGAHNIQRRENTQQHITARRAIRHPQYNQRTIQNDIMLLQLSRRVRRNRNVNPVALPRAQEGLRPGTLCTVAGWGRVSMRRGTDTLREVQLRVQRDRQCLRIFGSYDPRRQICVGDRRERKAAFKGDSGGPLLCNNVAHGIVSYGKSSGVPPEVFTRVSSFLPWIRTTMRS
Method: as §1
Measurement of inhibitory activity of compounds toward cathepsin G (CatG).
(§3) The inhibitory activity assay is performed at 37°C in 0,1M Tric-HCl, 0,5M NaCl buffer, pH 7,5, within 10 min after initial pre-incubation of the enzyme with inhibitor tested at 37°C for 10 min. The enzyme concentration is 100nM. Substrate used MCA-Phe-Val-Thr-Gnf-Ser-Trp-Anb-NH2 at 2.5µM. Measurement is taken at an excitation wavelength of 325nm and 400nm emission.
as §2

subtilisin (Sub) = subtilisin (Sub) (Bacillus licheniformis, UniProt P00780); assay: Inhibitory activity toward subtilisin, fluorogenic substrate, microplate reader; details: for Sub Kobs/[I]: 10 min pre-incubation at 37°C, pH 7,5, Me-Suc-Ala-Ala-Pro-Phe-AMC 5µM, NI = brak inhibicji (no inhibition)
Method: as §1
Measurement of inhibitory activity of compounds toward subtilisin (Sub).
(§4) The inhibitory activity assay is performed at 37°C in 0,05M Tris-HCl, 1M NaCl, 0,01% Triton X-100 buffer, pH 7,5, within 10 min after initial pre-incubation of the enzyme with inhibitor tested at 37°C for 10 min. The enzyme concentration is 5nM. Substrate used Me-Suc-Ala-Ala-Pro-Phe-AMC at 5µM. Measurement is taken at an excitation wavelength of 350nm and 460nm emission.
as §2

[2] = biological target: porcine pancreatic elastase (PPE) (Sus scrofa, UniProt P00772); assay: Inhibitory activity toward porcine pancreatic elastase, fluorogenic substrate, microplate reader
Method: as §1
Measurement of inhibitory activity of compounds toward porcine pancreatic elastase (PPE).
as §4, with “0,01M” for “0,05M”, “0,05%” for “1M NaCl, 0,01%”, “8,5,” for “7,5,”, “60nM.” for “5nM.”, “Me-Suc-Ala-Ala-Pro-Val-AMC” for “Me-Suc-Ala-Ala-Pro-Phe-AMC”, “100µM.” for “5µM.”
as §2

proteinase 3 (PR3) = biological target: T3, proteinase 3 (PR3) (Homo sapiens, UniProt P24158); assay: Inhibitory activity toward proteinase 3, fluorogenic substrate, microplate reader
T3 sequence (P24158 28-248): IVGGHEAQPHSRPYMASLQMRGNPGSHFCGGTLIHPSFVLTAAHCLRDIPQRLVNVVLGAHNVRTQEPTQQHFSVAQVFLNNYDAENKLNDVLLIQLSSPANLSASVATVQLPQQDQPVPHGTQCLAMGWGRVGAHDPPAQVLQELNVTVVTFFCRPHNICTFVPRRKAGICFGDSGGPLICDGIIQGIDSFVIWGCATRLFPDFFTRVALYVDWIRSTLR
Method: as §1
Measurement of inhibitory activity of compounds toward proteinase 3(PR3).
as §3, with “17nM.” for “100nM.”, “Abz-Tyr-Tyr-Abu-Anb-NH2” for “MCA-Phe-Val-Thr-Gnf-Ser-Trp-Anb-NH2”, “30µM.” for “2.5µM.”
as §2

chymotrypsin (ChTry) = chymotrypsin (ChTry) (Bos taurus, UniProt P00766); assay: Inhibitory activity toward chymotrypsin, fluorogenic substrate, microplate reader; details: 10 min pre-incubation at 37°C, pH 7,5, Suc-Ala-Ala-Pro-Phe-AMC 5µM; NI = brak inhibicji (no inhibition)
Method: as §1
Measurement of inhibitory activity of compounds toward […] (ChyTry).
as §3, with “HEPES,” for “Tric-HCl,”, “3nM.” for “100nM.”, “Suc-Ala-Ala-Pro-Phe-AMC” for “MCA-Phe-Val-Thr-Gnf-Ser-Trp-Anb-NH2”, “5µM.” for “2.5µM.”, “350nm” for “325nm”, “460nm” for “400nm”
as §2

[3] = 10 min pre-incubation at 37°C, pH 7,5, Me-Suc-Ala-Ala-Pro-Val-AFC 25µM, NI = brak inhibicji (no inhibition)
[4] = read-out: Cat G IC50, 10 min pre-incubation at 37°C, pH 7,5, MCA-Phe-Val-Thr-Gnf-Ser-Trp-Anb-NH2 2.5µM, NI = brak inhibicji (no inhibition)
[5] = 10 min pre-incubation at 37°C, pH 8,5, Me-Suc-Ala-Ala-Pro-Val-AMC 100µM, NI = brak inhibicji (no inhibition)
[6] = read-out: HNE IC50, 10 min pre-incubation at 37°C, pH 7,5, Me-Suc-Ala-Ala-Pro-Val-AFC 25µM, NI = brak inhibicji (no inhibition)
[7] = 10 min pre-incubation at 37°C, pH 7,5, MCA-Phe-Val-Thr-Gnf-Ser-Trp-Anb-NH2 2.5µM, NI = brak inhibicji (no inhibition)
[8] = read-out: PPE IC50, 10 min pre-incubation at 37°C, pH 8,5, Me-Suc-Ala-Ala-Pro-Val-AMC 100µM, NI = brak inhibicji (no inhibition)
[9] = read-out: PR3 IC50, 10 min pre-incubation at 37°C, pH 7,5, Abz-Tyr-Tyr-Abu-Anb-NH2 30µM, NI = brak inhibicji (no inhibition)

Sequence of subtilisin (Sub) (P00780 106-379): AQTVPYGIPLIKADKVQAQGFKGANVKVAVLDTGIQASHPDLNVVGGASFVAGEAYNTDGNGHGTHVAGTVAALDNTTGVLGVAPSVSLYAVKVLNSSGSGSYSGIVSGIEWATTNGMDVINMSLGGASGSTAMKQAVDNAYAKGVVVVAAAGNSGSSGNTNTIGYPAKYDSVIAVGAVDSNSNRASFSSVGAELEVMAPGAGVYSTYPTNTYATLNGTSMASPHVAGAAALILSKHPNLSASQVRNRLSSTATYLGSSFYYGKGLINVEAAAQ
Sequence of porcine pancreatic elastase (PPE) (P00772 27-266): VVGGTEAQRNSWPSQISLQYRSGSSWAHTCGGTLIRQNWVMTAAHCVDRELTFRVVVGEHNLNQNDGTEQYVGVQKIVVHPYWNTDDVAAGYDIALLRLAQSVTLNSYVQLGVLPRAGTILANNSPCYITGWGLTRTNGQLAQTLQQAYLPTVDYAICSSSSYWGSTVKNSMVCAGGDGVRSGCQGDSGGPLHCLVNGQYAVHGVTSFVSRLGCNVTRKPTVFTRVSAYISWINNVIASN

| Structure (SMILES) | IC50 [1] | HNE Kobs/[I] [1, 3] | IC50 (cathepsin G (CatG); [4]) | IC50 (subtilisin (Sub)) | Sub Kobs/[I] (subtilisin (Sub)) | IC50 [2] | PPE Kobs/[I] [2, 5] | IC50 (proteinase 3 (PR3)) | PR3 Kobs/[I] (proteinase 3 (PR3); 10 min pre-incubation at 37°C, pH 7,5, Abz-Tyr-Tyr-Abu-Anb-NH2 30µM, NI = brak inhibicji (no inhibition)) | IC50 [1, 6] | IC50 (cathepsin G (CatG)) | Cat G Kobs/[I] (cathepsin G (CatG); [7]) | IC50 [2, 8] | IC50 (proteinase 3 (PR3); [9]) | ChyTr Kobs/[I] (chymotrypsin (ChTry)) |
| --- | --- | --- | --- | --- | --- | --- | --- | --- | --- | --- | --- | --- | --- | --- | --- |
| CC(C)C(NC(=O)CCCCC1SCC2NC(=O)NC21)C(=O)N1CCCC1C(=O)NC(C(C)C)P(=O)(Oc1ccccc1)Oc1ccccc1 (centres unmarked) [Compound 2, diphenyl 2-methyl-1-(1-(3-methyl-2-(5-(2-oxohexahydro-1H-thieno[3,4-d]imidazol-4-yl)pentanamido)butanoyl)pyrrolidine-2-carboxamido)propylphosphonate] | 0.0065 ± 0.0003 µM | 1.8*10^5 M^-1S^-1 | > 5 µM | 0.415 ± 0.017 µM | 2.8*10^3 M^-1S^-1 | 0.246 ± 0.0305 µM | 4.7*10^3 M^-1S^-1 | 0.728 ± 0.044 µM | 3.2*10^3 M^-1S^-1 | – | – | – | – | – | – |
| CC(C)C(NC(=O)CCCCC1SCC2NC(=O)NC21)C(=O)N1CCCC1C(=O)NC(Cc1ccccc1)P(=O)(Oc1ccccc1)Oc1ccccc1 (centres unmarked) [Compound 3, diphenyl 1-(1-(3-methyl-2-(5-(2-oxohexahydro-1H-thieno[3,4-d]imidazol-4-yl)pentanamido)butanoyl)pyrrolidine-2-carboxamido)-2-phenylethylphosphonate] | – | – | – | 0.0116 ± 0.0002 µM | 1.0*10^5 M^-1S^-1 | – | – | – | – | > 5 µM | 0.258 ± 0.033 µM | 4.5*10^3 M^-1S^-1 | > 5 µM | > 5 µM | 5.6*10^4 M^-1S^-1 |
| CSc1ccc(OP(=O)(Oc2ccc(SC)cc2)C(C)NC(=O)C2CCCN2C(=O)C(NC(=O)CCCCC2SCC3NC(=O)NC32)C(C)C)cc1 (centres unmarked) [Compound 4, bis(4-(methylthio)phenyl) 1-(1-(3-methyl-2-(5-(2-oxohexahydro-1H-thieno[3,4-d]imidazol-4-yl)pentanamido)butanoyl)pyrrolidine-2-carboxamido)ethylphosphonate] | 0.00555 ± 0.00025 µM | 2.1*10^5 M^-1S^-1 | > 5 µM | 0.0402 ± 1e-05 µM | 2.9*10^4 M^-1S^-1 | 0.136 ± 0.0075 µM | 8.5*10^3 M^-1S^-1 | – | – | – | – | – | – | > 5 µM | – |
| COc1ccc(OP(=O)(Oc2ccc(OC)cc2)C(CC(C)C)NC(=O)C2CCCN2C(=O)C(NC(=O)CCCCC2SCC3NC(=O)NC32)C(C)C)cc1 (centres unmarked) [Compound 5, bis(4-methoxyphenyl) (3-methyl-1-(1-(3-methyl-2-(5-(2-oxohexahydro-1H-thieno[3,4-d]imidazol-4-yl)pentanamido)butanoyl)pyrrolidine-2-carboxamido)butyl)phosphonate] | – | – | > 5 µM | 0.0479 ± 0.00057 µM | 2.4*10^4 M^-1S^-1 | 5 µM | 2*10^2 M^-1S^-1 | – | – | > 5 µM | – | – | – | > 5 µM | 7.4*10^3 M^-1S^-1 |
| CC(C)C(NC(=O)CCC(=O)NCCCCCNC(=O)CCCCC1SCC2NC(=O)NC21)C(=O)N1CCCC1C(=O)NC(Cc1ccccc1)P(=O)(Oc1ccccc1)Oc1ccccc1 (centres unmarked) [Compound 10, diphenyl (1-(1-(3-methyl-2-(4-oxo-4-((5-(5-(2-oxohexahydro-1H-thieno[3,4-d]imidazol-4-yl)pentanamido)pentyl)amino)butanamido)butanoyl)pyrrolidine-2-carboxamido)-2-phenylethyl)phosphonate] | – | – | – | 0.0399 ± 0.0046 µM | 2.9*10^4 M^-1S^-1 | – | – | – | – | > 5 µM | 0.3 ± 0.0005 µM | 3.8*10^3 M^-1S^-1 | > 5 µM | > 5 µM | 7.0*10^4 M^-1S^-1 |
